Measured values taken from the NIST ThermoML archive (doi:10.1016/j.fluid.2013.07.002).
± gives the expanded uncertainty stated by the source.

Conditions: Crystal; visual observation

Normal melting temperature: 58 ± 0.39 °C
SMILES: CCCCCCCCCCCCCCCCCCO [1-octadecanol]
